According to US20040127518A1, “Modulation of anxiety through blockade of anandamide hydrolysis” (priority 2002, published 2004):
Where two headings read alike, the source gives them in different places.

Assays:
[1] = Motor activity (Opto-Varimex cage); type: in vivo, rat
Protocol: We dissolved FAAH inhibitors and rimonabant in dimethylsulfoxide (DMSO)/saline (7/3 and 9/1, respectively); we administered FAAH inhibitors by i.p. injection 30 min before tests and rimonabant 30 min before UCM532. The elevated zero maze was comprised of a black Perspex annular platform (105 cm diameter, 10 cm width) elevated to 65 cm above ground level, divided equally into four quadrants (Bickerdike, M. J. et al., Eur. J. Pharmacol., 271, 403-411 (1994); Shepherd, J. K. et al., Psychopharmacology, 116, 56-64 (1994)). […] We placed the rats in a closed quadrant and video recorded them for 5-min periods, thoroughly cleaning the maze between sessions. […] Results are expressed as percent time in open quadrant/total time (percent time open). Results were analyzed by one-way ANOVA followed by Tukey's test. We recorded motor activity of each rat in an Opto-Varimex cage (Columbus Instruments, Columbus, Ohio) linked on-line to a computer and placed in a sound-attenuated room illuminated by a 20-W white light. The amount of time spent in ambulatory activity was analyzed using an Auto-Track software (Columbus Instruments, Columbus, Ohio) as described elsewhere (Ali, M. M. et al., Neurosci. Lett., 284, 57-60 (2000); Wedzony, K. et al., Neuropsychopharmacology, 23, 547-559 (2000)). […] We analyzed data by overall one-way ANOVA followed by Tukey's test for individual between-group comparisons. […]

[2] = target: T1, FAAH (Rattus norvegicus, UniProt P97612); test: biochemical; type: biochemical; set-up: from tissue; host or cells: rat brain (membrane fraction of homogenate; Wistar rats)
T1 sequence (P97612 1-579): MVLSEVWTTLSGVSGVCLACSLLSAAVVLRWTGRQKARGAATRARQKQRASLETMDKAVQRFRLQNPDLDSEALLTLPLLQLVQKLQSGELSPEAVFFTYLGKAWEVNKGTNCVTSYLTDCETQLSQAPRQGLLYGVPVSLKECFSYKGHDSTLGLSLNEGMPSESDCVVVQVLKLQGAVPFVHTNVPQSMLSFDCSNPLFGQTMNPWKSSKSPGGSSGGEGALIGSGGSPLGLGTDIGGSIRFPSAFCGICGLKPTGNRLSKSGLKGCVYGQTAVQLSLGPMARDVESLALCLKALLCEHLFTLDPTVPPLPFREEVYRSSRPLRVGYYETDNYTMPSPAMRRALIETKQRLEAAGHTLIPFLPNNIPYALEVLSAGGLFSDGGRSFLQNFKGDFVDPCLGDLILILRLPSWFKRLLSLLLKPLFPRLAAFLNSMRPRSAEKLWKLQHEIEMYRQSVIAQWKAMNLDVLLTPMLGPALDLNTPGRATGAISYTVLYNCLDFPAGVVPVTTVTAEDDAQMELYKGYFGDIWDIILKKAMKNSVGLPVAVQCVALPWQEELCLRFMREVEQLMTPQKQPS

[3] = system: panel of 21 receptors, ion channels and neurotransmitter transporters; test: Panel of 21 receptors, ion channels and neurotransmitter transporters; type: binding; conditions: 10 μM; data not shown
[4] = Catalepsy; type: in vivo; conditions: UCM532 10 mg kg-1 i.p.; UCM597 0.3 mg kg-1 i.p.; data not shown
From the text: We dissolved all compounds in saline/Tween 80/polyethylenglycol (90/5/5) and administered them by i.p. injection immediately before tests. We measured body temperature with a rectal probe (Type T, Copper-Costantan Thermocouple-Physitemp Instruments INC, Clifton, N.J.) connected to a digital thermometer (model BAT-12 Physitemp Instruments INC, Clifton, N.J.); and catalepsy using the procedure described in Tseng and Craft (Tseng, A. H. et al., Eur. J. Pharmacol., 430, 41-47 (2001)).

[5] = Mouse hot-plate test; type: in vivo; conditions: dose not stated, data not shown
Protocol: We dissolved FAAH inhibitors in polyethyleneglycol/water (1/1) and rimonabant in saline. Formalin and hot-plate assays were carried out in the mouse, as described (Beltramo, M. et al., FEBS Lett., 403, 263-267 (1997)).
The compounds exerted, however, moderate antinociceptive effects in two models of acute pain.

[6] = target: T2, brain FAAH activity (Rattus norvegicus, UniProt P97612); test: Brain FAAH activity after systemic (i.p.) administration; type: in vivo; conditions: ip, six experiments, read-out: half-maximal inhibition of brain FAAH activity (ID50)
T2 construct: from tissue; host or cells: rat brain (membrane fraction of homogenate; Wistar rats)
T2 sequence (P97612 1-579): T1 sequence (P97612 1-579)

With `CCCCNC(=O)Oc1ccc(OCc2ccccc2)cc1` [UCM532, n-Butylcarbamic acid 4-benzyloxyphenyl ester] the ambulation time ([1]; adult rats, 20 min session, ≧10 mg kg-1) was “modest decrease”, the pup movement ([1]; rat pups, 5 mg kg-1, data not shown) was “no effect” and the IC50 ([2]; Table 3, read-out: Amidohydrolase IC50) was 0.4 µM. For the same molecule, the IC50 ([2]; Table 4, FAAH IC50, read-out: Inhibition of Amidohydrolase IC50) was 0.3 µM, the “mode of FAAH inhibition (kinetic analyses and dialysis experiments)” value ([2]; data not shown) was “irreversible interaction” and the IC50 ([2]; rat brain membranes, read-out: IC50) was 0.396 ± 0.063 µM. The “interaction with panel of 21 receptors, ion channels and transporters” value [3] was “did not significantly interact”, the “catalepsy (rigid immobility)” value [4] was “no catalepsy” and the “antinociceptive effect, hot-plate test, compared with UCM597” value [5] was “mimicked, albeit less effectively”. The ED50 [6] was 0.6 ± 0.09 mg/kg.
